Laboratory results as given in patent US20250000948A1, “SOLID COMPOSITIONS COMPRISING A PEPTIDE OR A PROTEIN AND AN ACYLATED AMINO ACID” (ADOCIA, priority 2021, published 2025).

Experiments:
[1] = Solubilization kinetics of compacts, USP <711> paddle apparatus (Example B1); type: physicochemical; conditions: 200 mM phosphate buffer pH 6.8, 37° C., 75 rpm
Experimental: To evaluate solubilization kinetics of NaPheC6 and NaPheC8 in similar conditions, compacts are prepared in the following manner:
In a manual tablet press (LFA TDP 0 Desktop tablet press) equipped with cylindrical 8 mm diameter punches, 200 +10 mg of permeation enhancer is filled into the die cavity. Compression into cylindrical compacts of 4±0.5 mm height yields compacts with apparent volumetric mass of 1±0.2 g/mL.
These compacts are put into a capsule sinker, then dissolved using an USP <711>-compliant apparatus (type 2-Paddle apparatus). Dissolution is done into 700 mL of 200 mM phosphate buffer, pH 6.8. Temperature is set at 37° C. and agitation at 75 rpm.
Sampling of the dissolution medium followed by HPLC dosage yields the following dissolution profiles for the compounds NaPheC6 and NaPheC8, respectively: […]

Caco-2 monolayers = type: in vitro ADME
Experimental: An in vitro permeability assay was conducted in order to evaluate the impact of NaPheC8 on the passage of peptides through a monolayer of intestinal epithelial cells. Caco-2 cells were seeded on a polycarbonate membrane that separate basal and apical compartments of a Transwell system and cultured for 21-days.
Insulin lispro and semaglutide formulations (100 μM) were added into the apical compartment of the culture system in presence or absence of different concentrations of NaPheC8.
In vitro absorption of peptides was estimated by quantifying insulin lispro or semaglutide in the basal compartment 1 hour after the addition of formulations (quantification by ELISA).
Peptide permeability in the presence of NaPheC8, expressed as a fold-increase compared to the treatment with the peptide alone, is reported in the table below: […]

Row | dissolved (%) ([1]; 20 seconds) | dissolved (%) ([1]; 40 seconds) | dissolved (%) ([1]; 60 seconds) | dissolved (%) ([1]; 80 seconds) | dissolved (%) ([1]; 100 seconds) | SMILES | effect on passage of peptides through Caco-2 monolayers (in words) (Caco-2 monolayers)
1 | 47 | 100 | 100 | 100 | 100 | CCCCCC(=O)N[C@@H](Cc1ccccc1)C(=O)O [NaPheC6, N-hexanoyl-Phenylalanine] | –
2 | 15 | 37 | 57 | 89 | 99 | CCCCCCCC(=O)N[C@@H](Cc1ccccc1)C(=O)[O-].[Na+] [NaPheC8, sodium salt of N-octanoyl phenylalanine] | favors the passage of these peptides through Caco-2 monolayers, in a dose-dependant manner
